Results as given in patent US8779235B2, “Engineering single-gene-controlled staygreen potential into plants” (Pioneer Hi-Bred International, Inc., priority 2003, dated 2014).

Legend:
Format in all cases: in vivo, maize
acs6/acs6 plants [1] = experiment: Western analysis for Rubisco in leaves
Description: (§1) FIG. 20 Panel A illustrates chlorophyll data, Panel B soluble protein, and Panel C Rubisco expression. The level of chlorophyll a+b (Panel A) and soluble protein (Panel B) was measured in the third oldest leaf (Leaf 3), sixth oldest leaf (Leaf 6), and ninth oldest leaf (Leaf 9) of adult wild-type (i.e., ACS6/ACS6), acs21acs2, and acs61acs6 plants following dark treatment for 7 days. Plants were watered daily. Additional acs61acs6 plants were watered daily with 100 μM ACC during the treatment. acs61acs6 leaves watered with 100 μM ACC but kept unsheathed are also shown. The average and standard deviation of leaves from three individual plants is shown. (Panel C) Western analysis of the same leaves was performed using rice anti-Rubisco antiserum. Soluble protein from leaf samples of equal fresh weight was used.
B73 leaves were collected at the indicated times and ground in liquid nitrogen to a fine powder. One ml of extraction buffer [20 mM HEPES (pH 7.6), 100 mM KCl, 10% glycerol, 1 mM PMSF] was added to approximately 0.1 g frozen powder and mixed thoroughly. Cell debris was pelleted by centrifugation at 10,000 rpm for 10 min and the protein concentration determined as described (Bradford, 1976). […] The blots were washed twice with TPBS and the signal detected typically between 1 to 15 min using chemiluminescence (Amersham Corp). […]

acs6/acs6 plants [2] = experiment: total soluble leaf protein after 7 day dark treatment; details: watered with 100 μM ACC
Description: as §1
For total protein isolation, leaves of B73 or mutant plants were collected at the indicated times, quick-frozen in liquid nitrogen and ground to a fine powder. […] Samples were centrifuged 10 min at 10,000 rpm, the supernatant removed to a new tube and the concentration determined spectrophotometrically according to the methods of Bradford (1976). See, Bradford M M (1976) A rapid and sensitive method for the quantitation of microgram quantities of protein utilizing the principle of protein-dye binding. […]

acs6/acs6 plants [3] = experiment: chlorophyll a+b level in leaves after 7 day dark treatment
Description: as §1
Leaves were frozen in liquid nitrogen and ground to a fine powder. Samples of approximately 0.1 g were removed to a 1.5 ml tube and weighed. Chlorophyll was extracted 5× with 1 ml (or 0.8 ml) of 80% acetone. Individual extractions were combined and the final volume adjusted to 10 ml (or 15 ml) with additional 80% acetone. Chlorophyll content (a+b) was determined spectrophotometrically according to the methods of Wellburn (1994). […]

acs6/acs6 plants [4] = experiment: dark-induced senescence of sheathed leaves, complementation of the acs6 mutant by exogenous ACC
Description: To examine if exogenous ACC could complement the acs6 mutant and reverse its staygreen phenotype, the third oldest, sixth, and ninth leaf from ACS6/ACS6, acs2/acs2, and acs6/acs6 plants were subject to dark-induced senescence at 20 DAP by covering them with sheaths for 7 days. All leaves were fully green at the onset of the experiment and remained attached to the plant. acs6/acs6 plants were watered daily with water or 100 μM ACC for 7 days. Following 7 days, dark-induced senescence had initiated in wild-type (i.e., ASC6/ASC6) leaves although it had not progressed to the extent observed following a 2 week dark treatment. […] Dark-induced senescence was also observed in leaf 3 of the acs2 homozygous mutant although it was less pronounced than that observed in the corresponding wild-type leaves.

## NC1(C(=O)O)CC1 [ACC, 1-aminocyclopropane-1-carboxylic acid]
acs6/acs6 plants [1]; ACC-treated acs6 leaves that remained in the light
  loss of Rubisco: No loss of Rubisco was observed
acs6/acs6 plants [1]; dark-treated acs6 leaves watered with 100 μM ACC
  loss of Rubisco: lost an amount of Rubisco similar to that of dark-treated B73 leaves
acs6/acs6 plants [2]
  retention of total soluble leaf protein compared with wild-type leaves: did not do so when watered with 100 μM ACC
acs6/acs6 plants [3]; acs6 leaves, 7 day dark treatment, watered with 100 μM ACC
  retention of chlorophyll a+b compared with wild-type leaves: did not do so when watered with 100 μM ACC
acs6/acs6 plants [3]; unsheathed leaves of acs6 mutants watered with ACC
  loss of chlorophyll: chlorophyll was not lost
acs6/acs6 plants [4]; acs6 leaves not sheathed, plants watered daily with 100 μM ACC for 7 days
  senescence of leaves that were not sheathed (visual): did not affect acs6 leaves that were not sheathed
acs6/acs6 plants [4]; acs6 leaves sheathed 7 days at 20 DAP, plants watered daily with 100 μM ACC
  dark-induced senescence (visual): dark-induced senescence similar to that of wild-type leaves was observed
